Assay results taken from US9096585B2 (Icahn School of Medicine at Mount Sinai, priority 2010, dated 2015).

System: influenza viruses
Type: cell-based, influenza virus

`Cc1[nH]c2ccc(-c3nnc(SCC(=O)N4CCCC4)o3)cc2c1C` [Compound A3] was tested. Which “generation of A3-resistant influenza viruses” value did it give?
The value was “unsuccessful”.
